This note sets out measurements from ChEMBL document CHEMBL1137065, “Identification of peptidomimetic HTLV-I protease inhibitors containing hydroxymethylcarbonyl (HMC) isostere as the transition-state mimic” (Bioorg Med Chem Lett, 2004).

In test [1] the target is T1, Gag-Pro polyprotein (Human T-cell leukemia virus 1 (strain Japan ATK-1 subtype A) (HTLV-1)) (UniProt P10274).
T1 sequence (whole entry): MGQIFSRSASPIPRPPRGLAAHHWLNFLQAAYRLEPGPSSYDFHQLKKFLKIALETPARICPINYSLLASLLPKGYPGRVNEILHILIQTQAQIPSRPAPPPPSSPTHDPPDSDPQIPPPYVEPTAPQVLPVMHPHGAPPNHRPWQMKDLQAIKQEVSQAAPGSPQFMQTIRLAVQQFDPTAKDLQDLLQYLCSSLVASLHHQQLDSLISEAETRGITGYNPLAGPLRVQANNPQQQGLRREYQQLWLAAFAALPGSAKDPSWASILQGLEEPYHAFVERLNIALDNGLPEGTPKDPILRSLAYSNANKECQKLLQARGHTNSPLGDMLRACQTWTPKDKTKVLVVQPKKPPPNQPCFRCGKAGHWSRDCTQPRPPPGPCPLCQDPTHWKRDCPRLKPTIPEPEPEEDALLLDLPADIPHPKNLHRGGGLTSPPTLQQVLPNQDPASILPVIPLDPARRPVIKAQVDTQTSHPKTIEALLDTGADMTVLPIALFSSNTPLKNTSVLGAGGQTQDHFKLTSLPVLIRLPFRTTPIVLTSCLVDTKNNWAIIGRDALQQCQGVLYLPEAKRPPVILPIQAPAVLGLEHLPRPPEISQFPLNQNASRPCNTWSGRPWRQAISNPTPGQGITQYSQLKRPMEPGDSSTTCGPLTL
Briefly: Percent inhibition of recombinant human T-cell leukemia virus type I (HTLV-1) protease was determined at 50 uM concentration. Conditions: Human T-cell lymphotrophic virus type 1 (strain ATK).

For test [2], the target named is Human immunodeficiency virus type 1 protease (Human immunodeficiency virus 1) (UniProt Q72874). Briefly: Percent inhibition of human immunodeficiency virus type I (HIV-1) protease was determined at 50 uM concentration.
Test [3] addresses T1, Gag-Pro polyprotein (Human T-cell leukemia virus 1 (strain Japan ATK-1 subtype A) (HTLV-1)). Briefly: Percent inhibition of recombinant human T-cell leukemia virus type I (HTLV-1) protease was determined at 100 uM concentration. As to conditions: human T-cell leukemia virus type 1.
For test [4] the target is unchanged. Briefly: Percent inhibition of synthesized human T-cell leukemia virus type I (HTLV-1) protease was determined at 50 uM concentration. Conditions: Human T-cell lymphotrophic virus type 1 (strain ATK).
Test [5] concerns the target T2, Gag-Pro polyprotein (Human T-cell leukemia virus 1 (strain Japan ATK-1 subtype A) (HTLV-1), UniProt P10274).
T2 sequence (P10274 whole entry): T1 sequence (whole entry)
Briefly: Inhibitory binding affinity towards recombinant human T-cell leukemia virus type I (HTLV-1) protease. Details: species or system human T-cell leukemia virus type 1.

Test [6] has as its target T2, Gag-Pro polyprotein. Briefly: Inhibitory binding affinity towards synthesized human T-cell leukemia virus type I (HTLV-1) protease. Set-up: species or system human T-cell leukemia virus type 1.
Test [7] concerns the target T1, Gag-Pro polyprotein (Human T-cell leukemia virus 1 (strain Japan ATK-1 subtype A) (HTLV-1)). Briefly: Percent inhibition of synthesized human T-cell leukemia virus type I (HTLV-1) protease was determined at 100 uM concentration. Conditions: human T-cell leukemia virus type 1.

The structures appear in SMILES notation. Starred links: 1 amine or outer side, 2 acyl side, 3 side chain; linkers in the order of their positions; H or OH if unused. Non-standard residues stand in square brackets, D forms with d. Residues, ends and D or L forms follow the SMILES beside them. X1 = O=C(C(O)[C@H](Cc1ccccc1)N[*:1])[*:2]; X2 = CC(C)C[C@H](N[*:1])C(O)C(=O)[*:2]; Thz(5,5-Me2) = CC1(C)SCN[C@@H]1C(=O)O

As for `CSCC[C@H](NC(=O)[C@@H](NC(=O)[C@H]1N(C(=O)C(O)[C@H](Cc2ccccc2)NC(=O)[C@@H](NC(=O)[C@H](CCC(N)=O)NC(=O)[C@@H]2CCCN2)C(C)C)CSC1(C)C)C(C)C)C(=O)N[C@@H](Cc1c[nH]cn1)C(=O)O` (stereo partly drawn) (H-PQV[X1][Thz(5,5-Me2)]VMH-OH), the inhibition was found to be 66% in test [1], 58% in test [2], 100% in test [3] and 80% in test [4].

As to `CSCC[C@H](NC(=O)[C@@H](NC(=O)[C@H]1N(C(=O)C(O)[C@H](Cc2ccccc2)NC(=O)[C@@H](NC(=O)[C@H](CCC(N)=O)NC(=O)[C@@H]2CCCN2)C(C)C)CSC1(C)C)C(C)C)C(=O)N[C@@H](Cc1cnc[nH]1)C(=O)O` (stereo partly drawn) (H-PQV[X1][Thz(5,5-Me2)]VMH-OH), the results for the Ki in test [5] and in test [6] were 3.9 µM and 2 µM, respectively.

On to `CSCC[C@H](NC(=O)[C@@H](NC(=O)[C@@H]1CCCN1C(=O)C(O)[C@H](CC(C)C)NC(=O)[C@@H](NC(=O)[C@H](CCC(N)=O)NC(=O)[C@@H]1CCCN1)C(C)C)C(C)C)C(=O)N[C@@H](Cc1c[nH]cn1)C(=O)O` (stereo partly drawn) (H-PQV[X2]PVMH-OH), for which the inhibition in test [1] came to 43%; in test [2], 3%; in test [3], 93%; in test [4] it was 58%.

Consider `Cc1ccccc1CNC(=O)C1N(C(=O)C(O)C(Cc2ccccc2)NC(=O)c2cccc(O)c2C)CSC1(C)C` (stereo not drawn), for which the inhibition in test [2] was 96%; in test [7], 79%; in test [3], 31%.

Consider `Cc1c(O)cccc1C(=O)NC(Cc1ccccc1)C(O)C(=O)N1CSC(C)(C)C1C(=O)NC(C)(C)C` (stereo not drawn), for which the inhibition in test [2] amounted to 88%; in test [7] it was 57%; in test [3], 38%.

In the case of `Cc1cccc(C)c1OCC(=O)NC(Cc1ccccc1)C(O)C(=O)N1CSC(C)(C)C1C(=O)NC(C)(C)C` (stereo not drawn), the inhibition in test [2] was determined as 96%; in test [7] it was 32%; in test [3], 43%.

Consider `CSCC[C@H](NC(=O)[C@@H](NC(=O)[C@H]1N(C(=O)C(O)[C@H](CC(C)C)NC(=O)[C@@H](NC(=O)[C@H](CCC(N)=O)NC(=O)[C@@H]2CCCN2)C(C)C)CSC1(C)C)C(C)C)C(=O)N[C@@H](Cc1c[nH]cn1)C(=O)O` (stereo partly drawn) (H-PQV[X2][Thz(5,5-Me2)]VMH-OH), for which the inhibition in test [1] turned out to be 63%; in test [2], 37%; in test [3] it was 100%; in test [4] it was 76%.

Regarding `CC(C)CC(=O)N[C@H](C(=O)N[C@H](C(=O)N[C@@H](CC(C)C)[C@@H](O)CC(=O)N[C@@H](C)C(=O)N[C@@H](CC(C)C)[C@@H](O)CC(=O)O)C(C)C)C(C)C` [PEPSTATIN], the inhibition in test [1] stood at 17%; in test [2] it was 23%; in test [4], 15%. For the same compound, the Ki was determined as 14.6 µM in test [5] and 36.5 µM in test [6].

For the compound `Cc1ccccc1CNC(=O)C1N(C(=O)C(O)C(Cc2ccccc2)NC(=O)COc2c(C)cccc2C)CSC1(C)C` (stereo not drawn), the inhibition in test [2] turned out to be 98%; in test [7] it was 11%; in test [3], 19%.

In the case of `CC(C)c1nc(CN(C)C(=O)N[C@H](C(=O)N[C@@H](Cc2ccccc2)C[C@H](O)[C@H](Cc2ccccc2)NC(=O)OCc2cncs2)C(C)C)cs1`, the results for the inhibition in test [2], in test [7] and in test [3] were 100%, 20% and 20%, respectively.

For `CSCC[C@H](NC(=O)[C@@H](NC(=O)[C@@H]1CCCN1C(=O)C(O)[C@H](Cc1ccccc1)NC(=O)[C@@H](NC(=O)[C@H](CCC(N)=O)NC(=O)[C@@H]1CCCN1)C(C)C)C(C)C)C(=O)N[C@@H](Cc1c[nH]cn1)C(=O)O` (stereo partly drawn) (H-PQV[X1]PVMH-OH), the inhibition in test [1] stood at 54%; in test [2], 6%; in test [3] it was 94%; in test [4] it was 59%.
